What was measured:
[1] = test system: rat alveolar macrophage line NR8383; experiment: Cellular stability in macrophages; type: in vitro ADME; settings: 100 nM compound
Method: Cellular Stability of Compounds
The cellular stability of compounds in vitro was tested using rat airway epithelial cell line L2 and rat alveolar macrophage line NR8383 (ATCC©CRL-2192™). Assays were performed in replicate and the data expressed as mean ± s.e. mean. L2 cells were cultured to confluence in T25 flasks or 24 -well plates using Kaighn’s modification of Ham’s F12 medium (F12K). Cells were prepared for assay by washing 3 times with serum-free F12K. NR8383 Airway macrophages were grown in suspension culture in F12K, collected by centrifugation, washed in serum-free medium and aliquoted into test plates (1.4 x 10^6 cells/well). Both cell lines were treated with ADI compounds (100 nM) in serum -free F12K in a 5% CO 2 environment at 37 °C. Samples were removed for quantitative analysis by LC -MS-MS using appropriate multiple reaction monitoring transitions for each analyte. […]
n-Octanol (0.7 mL), pre -saturated with 10 mM PBS, pH7.4, was added to test compound (~1 mg) in a 2 mL HPLC vial followed by PBS (0. 7 mL), which had been pre -saturated with n -octanol. The mixture was shaken for 90 min before centrifugation for 10 min at 4,000 rpm. The upper organic layer (0.2 mL) and the aqueous layer (0.5 mL) were removed for analysis by LC-MS. Peak identity was confirmed by mass spectrometry and concentration assessed spectrophotometrically using a diode array detector. The log

sensitized Balb/c mice = experiment: HDM extract challenge in sensitized Balb/c mice (BAL flow cytometry); type: in vivo; settings: HDM 10; i.t. 2 h prior to challenge; BAL 48 h
Method: Mice (female Balb/c 20 ± 2 g, Charles River) were isolator maintained in ventilated cages (Allentown IVC Racks, 36 Mini Isolator System, USA) that had been prepared for use by prior autoclaving. Environmental controls were 22–24 °C/60–80% relative humidity on a 12 h light/dark cycle. Animals were allowed ad libitum access to reverse osmosis-purified water and food (MF-18 laboratory rodent diet). Where prestudy serum samples were mandated, these were taken from the retro-orbital sinus on acclimatization in the isolator facility. Animals were randomly assigned to groups and sensitized to the HDM extract or treated with the vehicle on days 0, 7, and 14. […] Animals were anesthetized with propofol 48 h later (AstraZeneca, 10 mg/mL, 50 μL/mouse, i.v.), and terminal blood samples were taken from the retro-orbital sinus. BAL (3 × 0.5 mL aliquots of PBS) was performed, and the returns were combined for enumeration.
Flow cytometry (FACS) of BAL fluid was performed with a BD FACSAria instrument (Becton Dickinson Biosciences, USA) and the FACSDiva software. Analyses were performed by operators who were unaware of the sample identity. […]

Method for Pharmacokinetics in rats: Soluble formulations were developed and verified by high performance liquid chromatography (HPLC)
1 mL/kg) and p.o. (5 mg/kg, 5 mL/kg) in non-fasted Sprague-Dawley rats (male, 200-300 g, 10-16 weeks
of age, groups of three animals per route per compound). Timed blood samples were taken after dosing
and plasma prepared for LC-MS-MS quantification of the test substance after inclusion of an internal
standard. A non -compartmental model in WinNonlin software was used to calculate pharmacokinetic

Q: Which bioavailability (Pharmacokinetics in rats; male, Sprague-Dawley, rat, plasma, po, 5 mg/kg) does the source give for CC(C)[C@H](NC(=O)[C@H](C)NC(=O)[C@@H](NC(=O)c1ccccc1)C(C)(C)C)C(=O)C(=O)NCc1ccccc1 [Compound 1, N-{(S)-1-[(S)-1-((S)-1-benzylaminooxalyl-2-methyl-propylcarbamoyl)-ethylcarbamoyl]-2,2-dimethyl-propyl}-benzamide] here?
A: The bioavailability was 39%.

Q: And the half-life (Pharmacokinetics in rats; male, Sprague-Dawley, rat, plasma, po, 5 mg/kg, rat p.o., fasted)?
A: The half-life was 126 min.

Q: And the half-life (Pharmacokinetics in rats; male, Sprague-Dawley, rat, plasma, po, 5 mg/kg, rat p.o., fed)?
A: The half-life was 174 min.

Q: What about the volume of distribution (Pharmacokinetics in rats; rat p.o.) of the same compound?
A: The volume of distribution was 0.9 L/kg.

Q: And the clearance (Pharmacokinetics in rats; rat p.o., fasted)?
A: The clearance was 27 (fasted) mL/min/kg.

Q: What about the cell stability [1] of the same compound?
A: Its cell stability is 100; 100.

Q: And the “doses required for good activity against the HDM extract” value (sensitized Balb/c mice)?
A: Its value is > 10 µg/kg.
